Laboratory results taken from patent publication EP4567115A1, “METHOD FOR PRODUCING RIBOSOME IN CELL-FREE PROTEIN SYNTHESIS SYSTEM” (priority 2022, dated 2024).

How the values were obtained:
Type in all cases: biochemical, E. coli
native ribosomes = assay: Femtoliter droplet assay, control cell extract with pT7_oSD_or1_LacZ reporter; conditions: 100 µM spectinomycin, 5 nM pT7_oSD_or1_LacZ reporter
Method: A mixed oil consisting of light mineral oil (Sigma-Aldrich Corporation, St. Louis, MO, USA), 4.5% sorbitan monooleate (Nacalai Tesque), and 0.5% Triton® X-100 (Nacalai Tesque) was provided. The solution after the second reaction and the mixed oil were mixed and a microtube (Maruemu Corporation, Osaka, Japan) was tapped 20 times to obtain an emulsion. The resulting emulsion was incubated at 37°C for 2 hours to 17 hours, and bright field and fluorescence images of the droplets were acquired over time using a confocal fluorescence microscope LSM700 (Carl Zeiss AG, Oberkochen, Germany). The 488 nm laser was focused using an oil-immersion objective lens (Plan-Apochromat 40x/1.4 Oil DIC M27, Carl Zeiss AG) and oil-immersion oil (ImmersolTM518F, Carl Zeiss AG).
Next, a control experiment was performed using a control cell extract containing only native ribosomes and a pT7_oSD_or1_LacZ reporter. The control cell extract was mixed with 5 nM pT7_oSD_or1_LacZ reporter. In this condition, no fluorescence from native ribosomes was detected in the bulk assay (Fig. 10d).

endogenous ribosome = assay: Spectinomycin concentration optimisation, sonicated S12 cell extract with pT7_wtSD_LacZ reporter; conditions: spectinomycin concentration 5 mM
Method: Next, the optimal concentration of spectinomycin was examined. BL21 Star™ (DE3) lacZ::frt was transformed with a plasmid containing rRNA with or without C1192U spectinomycin resistance (SpcR). These bacterial strains were cultured in the presence of 0.1 mM IPTG for 3 hours, and the sonicated S12 cell extract and pT7_wtSD_LacZ reporter were mixed at various spectinomycin concentrations. […] Therefore, in the following experiments, the spectinomycin concentration was set to 5 mM unless otherwise specified.

[1] = molecular target: T1, 30S r-protein S12 K43T mutant (Escherichia coli, UniProt P0A7S3, K43T); assay: Bulk assay of in vitro produced SSU with S12 K43T mutant, spectinomycin and streptomycin in the second reaction; conditions: SSU only; gene encoding 30S r-protein S12 K43T mutant; in the presence of spectinomycin and streptomycin
T1 construct: made in house; host or cells: cell-free transcription/translation in E. coli S150 cell extract (first reaction)
Method: (§1) For the second reaction, a second reaction solution was prepared which contained 3.6 µL of the cell extract, an antibiotic (200 µM spectinomycin, 20 µg/mL streptomycin, 3 mM clindamycin, or 240 nM thiostrepton), 3 nM of the reporter plasmid, and 1 mM of IPTG. Note that when the reporter plasmid expressed LacZ, the second reaction solution included 66 µM of 5-chloromethylfluorescein di-β-D-galactopyranoside (CMFDG; Invitrogen, Waltham, MA, USA) as a substrate for LacZ. In the second reaction, 15 µL of the second reaction solution was added to and mixed with 15 µL of the solution after the first reaction, and the signal of the reporter was then measured. […] The signal of the reporter was quantified at λex = 485 nm and λem = 535 nm by using a fluorescence microplate reader, Fluoroskan Ascent FL™ (Thermo Fisher Scientific) or Infinite® 200 PRO (TECAN, Mannedorf, Switzerland).
The in vitro production of ribosomal SSU was specifically performed by the following procedure. […] The fluorescence of the reaction solution was measured by a bulk assay or a femtoliter droplet assay. In the bulk assay, the reporter signal was kinetically measured at λex = 485 nm and λem = 535 nm by using a Fluoroskan Ascent FL™ (Thermo Fisher Scientific) or Infinite® 200 PRO (TECAN) at 37°C for 120 minutes, 720 minutes, or 900 minutes. […]

[2] = molecular target: T2, wild-type 30S r-protein S12 (Escherichia coli, UniProt P0A7S3); assay: Bulk assay of in vitro produced 70S ribosome with wild-type S12 (pT7_oSD_or1_LacZ reporter), with streptomycin; conditions: wild-type 30S r-protein S12 gene; in the presence of spectinomycin and streptomycin
T2 construct: made in house; host or cells: cell-free transcription/translation in E. coli S150 cell extract (first reaction)
Method: as §1
(§2) A gene encoding a K43T mutant of 30S r-protein S12, which mutant confers streptomycin resistance to ribosomes, was used to produce a 70S ribosome with streptomycin resistance. […] In the second reaction, the translational activity of the ribosomal SSU was then detected by a bulk assay using the pT7_oSD_or1_LacZ reporter in the presence of spectinomycin and in the presence or absence of streptomycin.

[3] = molecular target: T3, K43T mutant of 30S r-protein S12 (Escherichia coli, UniProt P0A7S3, K43T); assay: Bulk assay of in vitro produced 70S ribosome with S12 K43T mutant (pT7_oSD_or1_LacZ reporter), with streptomycin; conditions: gene encoding K43T mutant of 30S r-protein S12; in the presence of spectinomycin and streptomycin
T3 construct: made in house; host or cells: cell-free transcription/translation in E. coli S150 cell extract (first reaction)
Method: as §1, §2

[4] = tested on: LSU formed using 32 different LSU r-protein genes excluding r-protein L11 gene; assay: Bulk assay of in vitro formed LSU lacking r-protein L11 (LacZ reporter) in the presence of thiostrepton; conditions: in the presence of thiostrepton (120 nM, Fig. 5b); LSU formed without r-protein L11 gene
Method: as §1
(§3) The in vitro production of ribosomal LSU was specifically performed by the following procedure. […] The fluorescence of the reaction solution was measured by a bulk assay in the same manner as in the case of the SSU.
(§4) Thiostrepton is known to inactivate an LSU by binding to 50S r-protein L11. […] In the second reaction, the translational activity of the ribosomal LSU was then detected by a bulk assay using the pT7PCONS_EpsA20_wtSD_lacZ reporter in the presence or absence of thiostrepton.

[5] = tested on: native ribosome (Escherichia coli); assay: Bulk assay of native ribosome translational activity (LacZ reporter) with or without thiostrepton in the second reaction; conditions: in the presence of thiostrepton (120 nM, Fig. 5a); pT7PCONS_EpsA20_wtSD_lacZ reporter
Method: as §1, §3, §4

SMILES: CN[C@@H]1[C@H](O)[C@H](NC)[C@H]2O[C@@]3(O)C(=O)C[C@@H](C)O[C@H]3O[C@@H]2[C@H]1O [spectinomycin]
- fluorescence derived from native ribosomes (native ribosomes): fluorescence derived from native ribosomes can be removed
- activity of the endogenous ribosome (endogenous ribosome): strongly suppressed

SMILES: [H]/N=C(/N)N[C@H]1[C@H](O)[C@@H](O)[C@H](O[C@@H]2O[C@@H](C)[C@](O)(C=O)[C@H]2O[C@@H]2O[C@@H](CO)[C@H](O)[C@@H](O)[C@@H]2NC)[C@@H](N/C(N)=N\[H])[C@@H]1O [streptomycin]
- reporter signal [1]: the reporter signal was not affected
- reporter signal (translational activity of the ribosomal SSU) [2]: no signal was detected
- reporter signal (translational activity of the ribosomal SSU) [3]: a signal was detected

SMILES: C=C(NC(=O)C(=C)NC(=O)c1csc(C2=N[C@@H]3c4csc(n4)[C@H]4NC(=O)c5csc(n5)[C@H]([C@](C)(O)[C@@H](C)O)NC(=O)[C@H]5CSC(=N5)/C(=C/C)NC(=O)[C@H]([C@@H](C)O)NC(=O)c5csc(n5)[C@]3(CC2)NC(=O)[C@H](C)NC(=O)C(=C)NC(=O)[C@H](C)NC(=O)[C@H]([C@@H](C)CC)N[C@@H]2C=Cc3c([C@H](C)O)cc(nc3[C@H]2O)C(=O)O[C@@H]4C)n1)C(N)=O [thiostrepton]
- LSU signal [4]: An LSU signal was detected
- signal of LSU (activity of the native ribosome) [5]: the signal of LSU disappeared
